According to the supplement of paper PMC10307832:

Experiments:
Experiment in all cases: relative viability (nuclei count vs DMSO), 5 days (fraction); higher = more cells survive
RAF265 + AZD7762 = compound: Cn1c(Nc2ccc(C(F)(F)F)cc2)nc2cc(Oc3ccnc(-c4ncc(C(F)(F)F)[nH]4)c3)ccc21 [RAF265] + NC(=O)Nc1cc(-c2cccc(F)c2)sc1C(=O)N[C@H]1CCCNC1 [AZD7762] (partner 0.2 µM)
Procedure, shortened: (§1)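 Dosing by pin tool came one day after lung cancer cell lines were seeded in 1536-well plates, using either one drug or a fixed anchor-drug dose plus five library-drug doses (not always all listed) in √10 steps. After 5 days, nuclei were counted on 4× images. Relative viability is treated-well nuclei count divided by vehicle-well nuclei count, and values are medians of duplicate plates.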

RAF265 + Vorinostat = compound: Cn1c(Nc2ccc(C(F)(F)F)cc2)nc2cc(Oc3ccnc(-c4ncc(C(F)(F)F)[nH]4)c3)ccc21 [RAF265] + O=C(CCCCCCC(=O)Nc1ccccc1)NO [Vorinostat] (partner 1 µM)
Procedure, shortened: as §1

RAF265 + Decitabine = compound: Cn1c(Nc2ccc(C(F)(F)F)cc2)nc2cc(Oc3ccnc(-c4ncc(C(F)(F)F)[nH]4)c3)ccc21 [RAF265] + Nc1ncn([C@H]2C[C@H](O)[C@@H](CO)O2)c(=O)n1 [Decitabine] (partner 2 µM)
Procedure, shortened: as §1

Doramapimod + Navitoclax = compound: Cc1ccc(-n2nc(C(C)(C)C)cc2NC(=O)Nc2ccc(OCCN3CCOCC3)c3ccccc23)cc1 [Doramapimod] + CC1(C)CCC(c2ccc(Cl)cc2)=C(CN2CCN(c3ccc(C(=O)NS(=O)(=O)c4ccc(N[C@H](CCN5CCOCC5)CSc5ccccc5)c(S(=O)(=O)C(F)(F)F)c4)cc3)CC2)C1 [Navitoclax] (partner 0.5 µM)
Procedure, shortened: as §1

Cell Line | relative viability (RAF265 + AZD7762; first compound 0.01 µM) | relative viability (RAF265 + AZD7762; first compound 0.03162 µM) | relative viability (RAF265 + AZD7762; first compound 0.1 µM) | relative viability (RAF265 + AZD7762; first compound 0.3162 µM) | relative viability (RAF265 + AZD7762; first compound 1 µM) | relative viability (RAF265 + Vorinostat; first compound 0.01 µM) | relative viability (RAF265 + Vorinostat; first compound 0.03162 µM) | relative viability (RAF265 + Vorinostat; first compound 0.1 µM) | relative viability (RAF265 + Vorinostat; first compound 0.3162 µM) | relative viability (RAF265 + Vorinostat; first compound 1 µM) | relative viability (RAF265 + Decitabine; first compound 0.01 µM) | relative viability (RAF265 + Decitabine; first compound 0.03162 µM) | relative viability (RAF265 + Decitabine; first compound 0.1 µM) | relative viability (RAF265 + Decitabine; first compound 0.3162 µM) | relative viability (RAF265 + Decitabine; first compound 1 µM) | relative viability (Doramapimod + Navitoclax; first compound 0.02 µM) | relative viability (Doramapimod + Navitoclax; first compound 0.06325 µM) | relative viability (Doramapimod + Navitoclax; first compound 0.2 µM) | relative viability (Doramapimod + Navitoclax; first compound 0.6325 µM) | relative viability (Doramapimod + Navitoclax; first compound 2 µM)
NCI-H596 | 1.29 | 1.08 | 1.03 | 0.877 | 0.548 | 0.809 | 0.642 | 0.642 | 0.589 | 0.522 | 1.06 | 0.975 | 0.913 | 1.13 | 0.925 | 0.927 | 0.809 | 0.933 | 1.01 | 0.876
NCI-H1944 | 0.75 | 0.617 | 0.512 | 0.448 | 0.365 | 0.674 | 0.602 | 0.55 | 0.405 | 0.491 | 0.445 | 0.496 | 0.398 | 0.384 | 0.317 | 1 | 1.11 | 1.05 | 1.17 | 1.08
LK-2 | 0.506 | 0.432 | 0.537 | 0.448 | 0.371 | 0.361 | 0.245 | 0.328 | 0.404 | 0.2 | 0.385 | 0.339 | 0.348 | 0.316 | 0.179 | 0.731 | 0.757 | 0.695 | 0.72 | 0.741
HCC-15 | 1.31 | 1.17 | 1.12 | 1.27 | 1.18 | 0.803 | 0.937 | 0.867 | 0.782 | 0.551 | 0.714 | 0.613 | 0.524 | 0.545 | 0.42 | 0.657 | 0.629 | 0.726 | 0.691 | 0.634
NCI-H727 | 0.471 | 0.67 | 0.576 | 0.494 | 0.606 | 1.26 | 1.16 | 1.03 | 1.24 | 0.862 | 0.885 | 0.854 | 0.708 | 0.805 | 0.75 | 0.467 | 0.337 | 0.501 | 0.481 | 0.382
HOP-62 | 0.572 | 0.553 | 0.462 | 0.482 | 0.422 | 0.664 | 0.542 | 0.56 | 0.507 | 0.332 | 0.223 | 0.215 | 0.238 | 0.226 | 0.186 | 1.1 | 1.1 | 1.17 | 1.04 | 1.05
NCI-H3122 | 1.03 | 1.17 | 1.02 | 0.949 | 0.862 | 1.02 | 1.01 | 0.93 | 0.965 | 0.631 | 0.408 | 0.379 | 0.429 | 0.304 | 0.29 | 1.03 | 0.992 | 1 | 1.09 | 0.914
NCI-H1395 | 0.403 | 0.382 | 0.422 | 0.419 | 0.393 | 0.791 | 0.65 | 0.807 | 0.554 | 0.587 | 0.753 | 0.664 | 0.66 | 0.707 | 0.549 | 1.17 | 1.12 | 1.1 | 1.12 | 1.06
